Source: EP0416248A2, “Use of vitamine B6 for reducing elevated serotonin levels” (priority 1989, dated 1991)
Read-outs that look alike come from different tables or passages of the source.

Experiments:
serotonin = type: in vivo, humans
Description: Studies on humans: The study was approved by the University Human Ethics Committee. Seven apparently healthy, young male volunteers aged 23 ± 2.4 ( ± SD) years gave informed consent to participate in the study. Each participant received theophylline (slow release) at a dosage of approximately 5 mg/kg body weight/day for one week. Thereafter, the theophylline dosage was increased to maintain plasma theophylline levels of approx. 10 mg/liter for 15 weeks. During the last week of the study (16th week) the participants were supplemented with 10 mg of vitamin B6 (B6) as herein described per day.
Clin. Chem. 35: 43-47. Serotonin concentrations were subsequently determined by HPLC according to the method of Tsuchiya et al.)

PL-kinase = target: T1, PL-kinase (Homo sapiens, UniProt O00764); experiment: Enzyme kinetic studies of PL-kinase inhibition; type: biochemical
T1 sequence (O00764 1-312): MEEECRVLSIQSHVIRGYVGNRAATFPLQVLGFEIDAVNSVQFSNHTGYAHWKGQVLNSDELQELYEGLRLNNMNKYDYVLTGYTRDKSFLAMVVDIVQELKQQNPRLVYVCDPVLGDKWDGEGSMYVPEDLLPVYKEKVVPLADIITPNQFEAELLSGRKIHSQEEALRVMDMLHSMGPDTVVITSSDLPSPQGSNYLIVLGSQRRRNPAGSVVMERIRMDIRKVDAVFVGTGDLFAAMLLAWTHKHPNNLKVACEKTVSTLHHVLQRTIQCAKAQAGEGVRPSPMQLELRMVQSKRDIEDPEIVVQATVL

[1] = system: glutamate pyruvate transaminase (GPT) in red blood cells; type: in vivo, human
Description: The inventor carried out clinical tests in human volunteers to investigate the effect of theophylline on glutamate pyruvate transaminase (GPT) in red blood cells, which plays an important biochemical role. […] When theophylline was administered there took place a dramatic drop in both PLP due to the inactivation of the kinase, and after approximately 28 days, also of RBC GPT levels as newly formed RBC (produced in the bone marrow under conditions of reduced PLP availability) begin to appear in the circulation.
As predicted, the body did indeed try to compensate for this by forming progressively more kinase. […] Thus the increased levels of kinase were unable to reverse the theophylline induced PLP deficiency and the concommittant GPT deficiency.

[2] = system: vitamin B6 levels in human plasma and cells; experiment: Applicant's investigations of enprofylline and vitamin B6 levels
[3] = system: B6 dependent intracellular pathways; experiment: Very low doses of PN in humans; type: in vivo; details: 0,02 mg/kg in humans

Cn1c(=O)c2[nH]cnc2n(C)c1=O [theophylline]
Urinary serotonin excretion, Basal (serotonin; 112 days of theophylline treatment, preceded by 1 week of vitamin B6 supplementation (10 mg/day), mean (SD)): 0.562 (0.127) umol/24 h
Urinary serotonin excretion after tryptophan loading (serotonin; human, in vivo): the observed changes were not statistcially significant
type of PL-kinase inhibition (PL-kinase): non-competitive
PLP ([1]; human, in vivo): dramatic drop
PLP content and GPT content ([1]; human, in vivo): remained depressed for as long as 100 days

CCCn1c(=O)[nH]c(=O)c2[nH]cnc21 [enprofylline, 3-propylxanthine]
effect on vitamin B6 levels in human plasma and cells [2]: adverse effect

Cc1ncc(CO)c(CO)c1O.Cl [vitamin B6]
urinary serotonin excretion (serotonin; one week of B6 supplementation (10 mg per day) during theophylline therapy): returned urinary serotonin excretion to pre-treatment levels
PLP deficiency induced by the xanthine bronchodilator ([1]; low dosage supplementation with Vitamin B6): almost immediately reversed

Cc1ncc(CO)c(CO)c1O [PN, pyridoxine]
extracellular PL and PLP levels [3]: without affecting extracellular PL and PLP levels materially
influence on B6 dependent intracellular pathways [3]: profound influence
half-life (plasma): 12 min

Cc1ncc(CO)c(C=O)c1O [PL, pyridoxal]
half-life (in vivo): 30 to 40 min
